Values quoted from earlier work, collected in US10758465B2, “Synephrine compositions” (Follea International, priority 2017, dated 2020).

Legend:
[1] = system: alpha1-adrenoceptors; conditions: postjunctional alpha1-adrenoceptors
[2] = system: alpha2-adrenoceptors; conditions: postjunctional alpha2-adrenoceptors

CNC[C@@H](O)c1ccc(O)cc1 [S-(+)-synephrine]
potency relative to the (−) form [1]: one to two orders of magnitude less
potency relative to the (−) form [2]: one to two orders of magnitude less
